# In ChEMBL document CHEMBL1136606, “Design and synthesis of bicyclic pyrimidinone-based HCV NS3 protease inhibitors” (Bioorg Med Chem Lett, 2003):
# Target: NS3 (Hepatitis C virus, UniProt A3EZJ3)
# Assay: Inhibitory activity hepatitis C virus NS3 protease.
# Design: species or system Hepacivirus hominis
# NS3, sequence (A3EZJ3 whole entry): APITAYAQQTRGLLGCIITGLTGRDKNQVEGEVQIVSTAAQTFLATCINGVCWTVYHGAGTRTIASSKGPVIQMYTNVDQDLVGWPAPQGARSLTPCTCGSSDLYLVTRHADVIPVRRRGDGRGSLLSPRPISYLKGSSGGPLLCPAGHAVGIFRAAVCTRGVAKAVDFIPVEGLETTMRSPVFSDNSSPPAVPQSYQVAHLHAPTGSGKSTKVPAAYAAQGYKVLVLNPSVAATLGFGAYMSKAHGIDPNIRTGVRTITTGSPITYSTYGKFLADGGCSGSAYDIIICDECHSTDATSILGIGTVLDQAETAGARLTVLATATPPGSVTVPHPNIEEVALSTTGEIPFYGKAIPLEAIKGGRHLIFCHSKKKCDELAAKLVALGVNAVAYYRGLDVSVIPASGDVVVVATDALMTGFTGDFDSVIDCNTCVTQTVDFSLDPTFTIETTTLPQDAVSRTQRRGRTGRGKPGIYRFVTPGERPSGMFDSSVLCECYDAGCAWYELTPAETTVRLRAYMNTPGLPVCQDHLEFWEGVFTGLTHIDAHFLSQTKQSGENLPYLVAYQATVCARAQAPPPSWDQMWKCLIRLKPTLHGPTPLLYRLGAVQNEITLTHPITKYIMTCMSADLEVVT
row,IC50,Structure (SMILES)
1,200 nM,CC[C@H](NC(=O)[C@@H]1C[C@@](C)(CC(=O)Nc2ccccc2OC)c2ncc(NCc3cccc(C(F)(F)F)c3)c(=O)n21)B1OC2C3CC(C[C@]2(C)O1)C3(C)C (some centres not stated)
2,360 nM,CC[C@H](NC(=O)[C@@H]1C[C@@](C)(NC(=O)Nc2ccccc2OC)c2ncc(NCc3cccc(C(F)(F)F)c3)c(=O)n21)B1OC2C3CC(C[C@]2(C)O1)C3(C)C (some centres not stated)
3,80 nM,CC[C@H](NC(=O)[C@@H]1C[C@@](C)(NC(=O)Nc2ccccc2C(=O)OC)c2ncc(NCc3cccc(C(F)(F)F)c3)c(=O)n21)B1OC2C3CC(C[C@]2(C)O1)C3(C)C (some centres not stated)
4,2530 nM,CC[C@H](NC(=O)[C@@H]1C[C@@](C)(CC(=O)Nc2ccccc2[N+](=O)[O-])c2ncc(NCc3cccc(C(F)(F)F)c3)c(=O)n21)B1OC2C3CC(C[C@]2(C)O1)C3(C)C (some centres not stated)
5,440 nM,CC[C@H](NC(=O)[C@@H]1C[C@@](C)(CC(=O)Nc2nccc3ccccc23)c2ncc(NCc3cccc(C(F)(F)F)c3)c(=O)n21)B1OC2C3CC(C[C@]2(C)O1)C3(C)C (some centres not stated)
6,7000 nM,CC[C@H](NC(=O)[C@@H]1CCc2ncc(NCc3cccc(C(F)(F)F)c3)c(=O)n21)B1OC2C3CC(C[C@]2(C)O1)C3(C)C (some centres not stated)
7,2400 nM,CC[C@H](NC(=O)[C@@H]1C[C@@](C)(NC(=O)Cc2ccccc2)c2ncc(NCc3cccc(C(F)(F)F)c3)c(=O)n21)B1OC2C3CC(C[C@]2(C)O1)C3(C)C (some centres not stated)
8,1100 nM,CC[C@H](NC(=O)[C@@H]1C[C@@](C)(NC(=O)Nc2ccc(Cl)cc2)c2ncc(NCc3cccc(C(F)(F)F)c3)c(=O)n21)B1OC2C3CC(C[C@]2(C)O1)C3(C)C (some centres not stated)
9,1030 nM,CC[C@H](NC(=O)[C@@H]1C[C@@](C)(NC(=O)Nc2ccc(F)cc2)c2ncc(NCc3cccc(C(F)(F)F)c3)c(=O)n21)B1OC2C3CC(C[C@]2(C)O1)C3(C)C (some centres not stated)
10,6400 nM,CC[C@H](NC(=O)[C@@H]1C[C@@](C)(NC(=O)Nc2ccccc2C(=O)O)c2ncc(NCc3cccc(C(F)(F)F)c3)c(=O)n21)B1OC2C3CC(C[C@]2(C)O1)C3(C)C (some centres not stated)
11,30000 nM,CC[C@H](NC(=O)[C@@H]1C[C@@](C)(NC(=O)Nc2ccccc2-c2ccccc2)c2ncc(NCc3cccc(C(F)(F)F)c3)c(=O)n21)B1OC2C3CC(C[C@]2(C)O1)C3(C)C (some centres not stated)
12,1550 nM,CCOC(=O)c1cccc(NC(=O)N[C@]2(C)C[C@@H](C(=O)N[C@@H](CC)B3OC4C5CC(C[C@]4(C)O3)C5(C)C)n3c2ncc(NCc2cccc(C(F)(F)F)c2)c3=O)c1 (some centres not stated)
13,130 nM,CC[C@H](NC(=O)[C@@H]1C[C@@](C)(NC(=O)Nc2cccc(SC)c2)c2ncc(NCc3cccc(C(F)(F)F)c3)c(=O)n21)B1OC2C3CC(C[C@]2(C)O1)C3(C)C (some centres not stated)
14,1100 nM,CCOC(=O)c1ccc(NC(=O)N[C@]2(C)C[C@@H](C(=O)N[C@@H](CC)B3OC4C5CC(C[C@]4(C)O3)C5(C)C)n3c2ncc(NCc2cccc(C(F)(F)F)c2)c3=O)cc1 (some centres not stated)
15,500 nM,CC[C@H](NC(=O)[C@@H]1C[C@@](C)(NC(=O)Nc2cccc(F)c2)c2ncc(NCc3cccc(C(F)(F)F)c3)c(=O)n21)B1OC2C3CC(C[C@]2(C)O1)C3(C)C (some centres not stated)
16,100 nM,CCOC(=O)c1ccccc1NC(=O)N[C@]1(C)C[C@@H](C(=O)N[C@@H](CC)B2OC3C4CC(C[C@]3(C)O2)C4(C)C)n2c1ncc(NCc1cccc(C(F)(F)F)c1)c2=O (some centres not stated)
17,780 nM,CC[C@H](NC(=O)[C@@H]1C[C@@](C)(NC(=O)Nc2ccccc2C)c2ncc(NCc3cccc(C(F)(F)F)c3)c(=O)n21)B1OC2C3CC(C[C@]2(C)O1)C3(C)C (some centres not stated)
18,710 nM,CC[C@H](NC(=O)[C@@H]1C[C@@](C)(NC(=O)Nc2ccccc2SC)c2ncc(NCc3cccc(C(F)(F)F)c3)c(=O)n21)B1OC2C3CC(C[C@]2(C)O1)C3(C)C (some centres not stated)
19,1400 nM,CC[C@H](NC(=O)[C@@H]1C[C@@](C)(NC(=O)Oc2ccccc2)c2ncc(NCc3cccc(C(F)(F)F)c3)c(=O)n21)B1OC2C3CC(C[C@]2(C)O1)C3(C)C (some centres not stated)

row,IC50,Structure (SMILES)
1,170 nM,CC[C@H](NC(=O)[C@@H]1C[C@@](C)(CC(=O)Nc2cccc3ccccc23)c2ncc(NCc3cccc(C(F)(F)F)c3)c(=O)n21)B1OC2C3CC(C[C@]2(C)O1)C3(C)C (some centres not stated)
2,90 nM,CC[C@H](NC(=O)[C@@H]1C[C@@](C)(CC(=O)Nc2cccc(SC)c2)c2ncc(NCc3cccc(C(F)(F)F)c3)c(=O)n21)B1OC2C3CC(C[C@]2(C)O1)C3(C)C (some centres not stated)
3,180 nM,CC[C@H](NC(=O)[C@@H]1C[C@@](C)(CC(=O)Nc2ccccc2C(=O)NC)c2ncc(NCc3cccc(C(F)(F)F)c3)c(=O)n21)B1OC2C3CC(C[C@]2(C)O1)C3(C)C (some centres not stated)
4,300 nM,CC[C@H](NC(=O)[C@@H]1C[C@@](C)(NC(=O)Nc2ccccc2Oc2ccccc2)c2ncc(NCc3cccc(C(F)(F)F)c3)c(=O)n21)B1OC2C3CC(C[C@]2(C)O1)C3(C)C (some centres not stated)
5,4740 nM,CC[C@H](NC(=O)[C@@H]1C[C@@](C)(NC(=O)Nc2ccc(Oc3ccccc3)cc2)c2ncc(NCc3cccc(C(F)(F)F)c3)c(=O)n21)B1OC2C3CC(C[C@]2(C)O1)C3(C)C (some centres not stated)
6,1200 nM,CC[C@H](NC(=O)[C@@H]1C[C@@](C)(NC(=O)NCc2ccccc2)c2ncc(NCc3cccc(C(F)(F)F)c3)c(=O)n21)B1OC2C3CC(C[C@]2(C)O1)C3(C)C (some centres not stated)
7,370 nM,CC[C@H](NC(=O)[C@@H]1C[C@@](C)(NC(=O)Nc2ccccc2Cl)c2ncc(NCc3cccc(C(F)(F)F)c3)c(=O)n21)B1OC2C3CC(C[C@]2(C)O1)C3(C)C (some centres not stated)
8,100 nM,CC[C@H](NC(=O)[C@@H]1C[C@@](C)(CC(=O)Nc2ccccc2C(=O)OC)c2ncc(NCc3cccc(C(F)(F)F)c3)c(=O)n21)B1OC2C3CC(C[C@]2(C)O1)C3(C)C (some centres not stated)
9,1460 nM,CC[C@H](NC(=O)[C@@H]1C[C@@](C)(CC(=O)Nc2ccccc2C(=O)N(C)C)c2ncc(NCc3cccc(C(F)(F)F)c3)c(=O)n21)B1OC2C3CC(C[C@]2(C)O1)C3(C)C (some centres not stated)
10,2360 nM,CC[C@H](NC(=O)[C@@H]1C[C@@](C)(NC(=O)Nc2ccc(SC)cc2)c2ncc(NCc3cccc(C(F)(F)F)c3)c(=O)n21)B1OC2C3CC(C[C@]2(C)O1)C3(C)C (some centres not stated)
11,1770 nM,CC[C@H](NC(=O)[C@@H]1C[C@@](C)(NC(=O)Nc2cccc(C(=O)OC)c2)c2ncc(NCc3cccc(C(F)(F)F)c3)c(=O)n21)B1OC2C3CC(C[C@]2(C)O1)C3(C)C (some centres not stated)
12,270 nM,CC[C@H](NC(=O)[C@@H]1C[C@@](C)(NC(=O)Nc2cccc3ccccc23)c2ncc(NCc3cccc(C(F)(F)F)c3)c(=O)n21)B1OC2C3CC(C[C@]2(C)O1)C3(C)C (some centres not stated)
13,170 nM,CC[C@H](NC(=O)[C@@H]1C[C@@](C)(CC(=O)Nc2ccccc2)c2ncc(NCc3cccc(C(F)(F)F)c3)c(=O)n21)B1OC2C3CC(C[C@]2(C)O1)C3(C)C (some centres not stated)
14,790 nM,CC[C@H](NC(=O)[C@@H]1C[C@@](C)(NC(=O)Nc2ccccc2)c2ncc(NCc3cccc(C(F)(F)F)c3)c(=O)n21)B1OC2C3CC(C[C@]2(C)O1)C3(C)C (some centres not stated)
15,180 nM,CC[C@H](NC(=O)[C@@H]1C[C@@](C)(NC(=O)Nc2ccccc2[N+](=O)[O-])c2ncc(NCc3cccc(C(F)(F)F)c3)c(=O)n21)B1OC2C3CC(C[C@]2(C)O1)C3(C)C (some centres not stated)
16,150 nM,CC[C@H](NC(=O)[C@@H]1C[C@@](C)(CC(=O)Nc2ccccc2C(N)=O)c2ncc(NCc3cccc(C(F)(F)F)c3)c(=O)n21)B1OC2C3CC(C[C@]2(C)O1)C3(C)C (some centres not stated)
17,160 nM,CCOc1ccccc1NC(=O)N[C@]1(C)C[C@@H](C(=O)N[C@@H](CC)B2OC3C4CC(C[C@]3(C)O2)C4(C)C)n2c1ncc(NCc1cccc(C(F)(F)F)c1)c2=O (some centres not stated)
18,3400 nM,CC[C@H](NC(=O)[C@@H]1C[C@@](C)(NC(=O)c2ccccc2)c2ncc(NCc3cccc(C(F)(F)F)c3)c(=O)n21)B1OC2C3CC(C[C@]2(C)O1)C3(C)C (some centres not stated)
